Experimental data reported in patent publication US6121296A, “Transition-state inhibitors for nucleoside hydrolase and transferase reactions” (Albert Einstein College of Medicine of Yeshiva University, priority 1998, dated 2000).
“Also recorded” adds a separate entry of the source. Like-named read-outs stand apart in the source and are kept apart here.

Biological target: T1, nucleoside hydrolase (Crithidia fasciculata, UniProt Q27546)
T1 construct: nucleoside hydrolase was purified from C. fasciculata as described above; endogenous in cells; host or cells: Crithidia fasciculata cells grown in a 300-liter fermenter
T1 sequence (Q27546 1-315): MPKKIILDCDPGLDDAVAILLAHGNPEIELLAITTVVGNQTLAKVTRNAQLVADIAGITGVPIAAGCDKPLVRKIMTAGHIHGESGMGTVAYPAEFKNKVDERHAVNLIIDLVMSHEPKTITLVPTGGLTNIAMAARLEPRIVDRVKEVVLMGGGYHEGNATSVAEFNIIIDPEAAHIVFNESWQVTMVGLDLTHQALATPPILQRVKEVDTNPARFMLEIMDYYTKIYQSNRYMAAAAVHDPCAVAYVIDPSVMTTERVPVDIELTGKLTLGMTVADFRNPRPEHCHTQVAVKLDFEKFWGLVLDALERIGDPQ
Assay: Nucleoside hydrolase purified from C. fasciculata: substrate kinetics and inhibition (Table III)
Assay type: biochemical
Conditions: for Substrate or inhibitor concentration (substrate activity limit; nucleoside concentration in parentheses): Table III lower part; for inhibition pattern: vs inosine; for Km / Vmax: Table III; for Km / Vmax / Vmax /Km: compound as substrate
Procedure: The assay volumes were […]. The reaction was terminated by the addition of […] of 1.0 M HCl. […] The color was developed at 95° C. for 8 minutes and the optical absorbance measured at 450 nm. Enzymatic activity was expressed as millimoles of reducing sugar formed per minute per milligram of protein. During the initial stages of purification a modified assay which removes excess protein was used. Protein solutions of 1-5 ml were added to 100 ml of the assay mixture and incubated for the desired time. The assay was terminated by the addition of […] of 0.1 M ZnSO4. Excess Zn^2+ was removed by the addition of […] of 0.1 M NaOH. After centrifugation, 250 ml of supernatant was removed and assayed for reducing sugar. […] Arsenate readily replaces phosphate in the reaction and the product ribose 1-arsenate rapidly hydrolazes to release ribose which is detected in the reducing sugar assay.
At other pH values, a mixed buffer system was used which contained 30 mM each of acetate. Mes, Pipes, Hepes, Bicine, and Ches were adjusted to the desired pH with HCl or NaOH. The reaction was initiated with a small volume of enzyme and the increase in absorbance recorded at 280 nm.
Assay mixtures of 19 ml contained the desired concentration of inosine and inhibitor(s) together with approximately 3×10^4 cpm of radioactive inosine in 50 mM Hepes or triethanolamine buffer, pH 7.3. […] Samples of […] were removed at the appropriate intervals and spotted on polyethyleneimine cellulose thin layer plates which had been previously spotted with 4 ml of a solution containing 2.2 mM each of inosine and hypoxanthine.
Reaction mixtures were incubated for 5-27 hours and samples analyzed on a 7.8 mm×30 cm C18 -HPLC column eluted with 5 or 10% methanol in H2 O, 4 ml/minute. Samples were detected by the absorbance at 257 nm. Substrate activity with deoxyinosine was also measured at 500 MHz by NMR. […] Proton NMR spectra were collected in sets of eight scans over 15 minutes at room temperature.
Apparent inhibition constants (Ki(app)) were determined from the relationship shown in the following equation:
Vo /Vi +(inosine±Km (1+I/Ki(app))/(inosine+Km)
where Vo and Vi are the initial reaction rates without and with inhibitor, respectively. Km is the Michaelis constant for inosine, I is inhibitor concentration and Ki(app) is the apparent dissociation constant for inhibitor. In cases where the inhibitor is competitive with respect to substrate, Ki(app) is the dissociation constant for the enzyme-inhibitor complex.

[1] = apparent constant, single inosine concentration near Km, three inhibitor concentrations, read-out: Ki(app)

Compound: Nc1ncnc2c1ncn2[C@@H]1O[C@H](CO)C[C@H]1O [3'-d-Adenosine]
- Ki: 7.29 mM
- Substrate or inhibitor concentration (substrate activity limit; nucleoside concentration in parentheses): < 0.16

Compound: CSC[C@H]1O[C@@H](n2cnc3c(N)ncnc32)[C@H](O)[C@@H]1O [5'-Methylthioadenosine]
- Ki: 5.7 mM
- Substrate or inhibitor concentration (substrate activity limit; nucleoside concentration in parentheses): < 0.0003

Compound: C[C@H]1O[C@@H](n2cnc3c(N)ncnc32)[C@H](O)[C@@H]1O [5d-adenosine, 5'-Deoxyadenosine]
- substrate activity: Low rates of product formation

Compound: C[C@H]1O[C@@H](n2cnc3c(=O)[nH]cnc32)[C@H](O)[C@@H]1O [5d-inosine]
- substrate activity: Low rates of product formation

Compound: Nc1ncnc2c1ccn2[C@@H]1O[C@H](CO)[C@@H](O)[C@H]1O [7-Deazaadenosine, 7-deazaadenosine]
- Ki: 2.3 mM
- rate of hydrolysis relative to the rate with inosine (detection level): < 3×10^-4
- Substrate or inhibitor concentration (substrate activity limit; nucleoside concentration in parentheses): < 0.0008
- substrate activity (listed as tubercidin): not a substrate; also recorded: lack of substrate activity
- inhibition pattern: competitive inhibitor

Compound: Nc1ncnc2c1ncn2[C@@H]1O[C@H](COP(=O)(O)O)[C@@H](O)[C@H]1O [AMP]
- Ki: 44 mM
- Substrate or inhibitor concentration (substrate activity limit; nucleoside concentration in parentheses): < 0.01

Compound: O=c1[nH]cnc2c([C@@H]3O[C@H](CO)[C@@H](O)[C@H]3O)n[nH]c12 [Formycin B]
- Ki: 1.96 mM
- Substrate or inhibitor concentration (substrate activity limit; nucleoside concentration in parentheses): < 0.02

Compound: O=c1[nH]cnc2nc[nH]c12 [Hypoxanthine]
- Ki: 6.2 ± 0.9 mM
- inhibition pattern: slope-linear, competitive patterns

Compound: OC[C@H]1O[C@@H](n2cnc3c(O)ncnc32)[C@H](O)[C@@H]1O [Inosine]
- Vmax /Km for inosine relative to adenosine: 7.8 times
- Km: 380 ± 30 µM
- Vmax: 50 ± 2 µmol/min/mg
- Vmax /Km: 7.6×10^-4 M^-1 S^-1

Compound: OC[C@H]1O[C@@H](n2cnc3cncnc32)[C@H](O)[C@@H]1O [Purine riboside]
- substrate activity: poor substrate
- Vmax /Km: 1.5×10^2 M^-1 S^-1

Compound: O=C[C@H](O)[C@H](O)[C@H](O)CO [Ribose]
- Ki: 0.7 ± 0.1 mM
- inhibition pattern: slope-linear, competitive patterns

Compound: Cc1cn([C@H]2C[C@H](O)[C@@H](CO)O2)c(=O)[nH]c1=O [Thymidine]
- Ki: 7.8 mM
- substrate activity: no activity being detected
- Substrate or inhibitor concentration (substrate activity limit; nucleoside concentration in parentheses): < 0.0008
- apparent Vmax difference, 5-methyluridine vs thymidine (effect of the 2'-hydroxyl): > 10^5

Compound: Nc1ncnc2c1ncn2C1CC(O)C(CO)O1 (stereo not drawn) [d-Adenosine]
- Substrate or inhibitor concentration (substrate activity limit; nucleoside concentration in parentheses): < 0.0006
- Ki [1]: 3.2 mM

Compound: O=c1[nH]cnc2c1ncn2[C@H]1C[C@H](O)[C@@H](CO)O1 [d-Inosine]
- Substrate or inhibitor concentration (substrate activity limit; nucleoside concentration in parentheses): < 0.0003
- Ki [1]: 2.3 mM

Compound: Cytosine
- Km: 4700 µM
- Vmax: 36 ± 3 µmol/min/mg
- Vmax /Km: 4.5 × 10^3 M^-1 S^-1
